Results taken from patent publication US20250161286A1 (AEVIS BIO, INC., priority 2022, published 2025).

Key:
[1] = system: BV-2 cells; assay: Nitrite content in culture solution of LPS-stimulated BV-2 cells (Griess Reagent System); assay type: cell-based, mouse; conditions: BV-2 cells, 3.33, 10 or 30 μM, 1 μg/mL LPS, 24 hours
Experimental: To further confirm the oxidative stress suppression effect, the content of nitrite released due to an inflammatory response and the expression levels of iNOS, which is an enzyme that produces nitric oxide, and COX-2, which is cyclooxygenase-2, were determined in mouse microglial cells (BV-2, ATCC, Manassas, VA, USA).
To determine the content of nitrite and the protein expression levels of iNOS and COX-2, BV-2 was seeded in a 12-well plate (Corning, MD, USA) at 1.5×10^5 cells/well, and cultured using a DMEM medium (Corning, MD, USA) containing 10% fetal bovine serum (Corning, MD, USA) and 100 U/ml of penicillin/streptomycin (Corning, MD, USA) at 37° C. in a 5% CO2 incubator for one day for stabilization. […] 1 μg/mL of LPS (Sigma, USA) was added to all experimental groups excluding the non-inflammation-induced group and allowed to react at 37° C. in a 5% CO2 incubator for 24 hours.
The cell culture solution was collected to measure the content of nitrite, and centrifuged at 3,000 rpm for 5 minutes to obtain a supernatant. The concentration of nitrite in the cell culture solution was measured using a microplate reader (NEO2MALPHAB Synergy Neo-2, BioTek, CA, US) according to the manual of the Griess Reagent System (#G2930, Promega, WI, USA).

[2] = system: Aiolos and Ikaros; assay: Aiolos and Ikaros degradation by immunoblotting in MM.1S cells; assay type: cell-based, human
Experimental: To this end, the MM.1S cell line was cultured in an RPMI medium (Corning, MD, USA) supplemented with 10% fetal bovine serum (Corning, MD, USA), 100 U/ml of penicillin (Corning, MD, USA), and 100 μg/ml of streptomycin (Corning, MD, USA) at 37° C. in a 5% CO2 incubator. […] The cells were disrupted by adding a RIPA buffer containing a protease inhibitor cocktail (Thermo Fisher Scientific) and centrifuged at 14,000 rpm for 15 minutes at 4° C. to obtain a cell extract. Equal amounts of the cell extract were loaded, and proteins were separated through SDS-PAGE and then transferred to a PVDF membrane. The protein-transferred membrane was blocked using skim milk, incubated with a primary antibody for 3 hours at room temperature, and then incubated with an HRP-conjugated secondary antibody for 1 hour at room temperature. The resulting product was washed with TBS-T three times between steps. Detection was performed using a chemoluminescence reagent (Thermo Fisher Scientific), and confirmed using Chemidoc (iBright CL1500, Invitrogen, CA, USA). Aiolos (#15103), Ikaros (#9034) and GAPDH (#2118S) antibodies used as primary antibodies and a secondary antibody were purchased from Cell Signaling Technology (Danvers, MA, USA).
Additionally, the expression of Aiolos and Ikaros, mediated by 3-MP, was confirmed over time. […]

SMILES: Nc1cccc2c1C(=S)N(C1CCC(=O)NC1=O)C2=O (stereo not drawn) [3-MP, 3-thiopomalidomide]
- amount of nitrite released by LPS [1]: effectively reduced the amount of the residual nitrite released by LPS
- expression of Aiolos and Ikaros over time ([2]; 10 μM, 1, 4, 8, 12 or 24 hours): does not reduce the expression of Aiolos and Ikaros
- expression of Aiolos and Ikaros ([2]; 0.000128-10 μM, 4 hours): does not reduce the expression of Aiolos and Ikaros
